Data on 16 compounds can be found in patent US12145931B2, “Substituted pyrrolo[2,3-c]quinolines as antimalarials” (COUNCIL OF SCIENTIFIC AND INDUSTRIAL RESEARCH, priority 2018, dated 2024).

A value given as a limit tells only on which side of the number the result lay.

In series [1] the test system is Plasmodium falciparum 3D7 strain. The series can be described thus: Anti-malarial screen, parasite growth by SybrGreen staining. Conditions: 60 hours incubation, triplicates; for inhibition at 10 µM / EC50: Plasmodium falciparum, 3D7; for EC50: serial dilution from 10 μM to 1 nM. Format: cell-based. On the procedure:
Plasmodium falciparum 3D7 strain from Malaria Research and Reference Reagent Resource Center (ID NO: MRA-102). Plasmodium falciparum (3D7) is cultured in the laboratory as per standard protocols [AzarRadfar, Darío Méndez, Carlos Moneriz, María Linares, Patricia Marín-García, Antonio Puyet, AmaliaDiez & José M Bautista. Synchronous culture of Plasmodium falciparum at high parasitemia levels Nature Protocols 2009, 4, 1899-1915]. When the parasitemia (i.e., percent infection of human RBCs) reaches >15%, 1 mL of culture suspension is layered over 10 mL of 60% percoll (pH and osmolality adjusted using PBS) and centrifuged at 3000 rpm for 5 min using a swing out rotor. This separates late stage parasite (trophozoite and schizont) infected RBC (as a band on top of the percoll cushion) from early stage parasite (ring) infected and uninfected RBCs (as pellet at the bottom of the percoll cushion). The >90% enriched late stage parasite infected RBCs are collected, washed with complete RPMI media and added to a 2% hematocrit RBC suspension such that the final parasitemia is around 2%. The parasites grow in a synchronous manner for at least 2 rounds of asexual cycle (48 hours). This culture is then used for anti-malarial screening as given below.
200 μL of ring stage parasite culture at ˜2% parasitemia (see above) is added to each well in a 96 well plate pre-seeded with the compound of interest at the required concentration. 1 mM and 10 mM stocks dilutions of the compounds are prepared in cell culture grade DMSO, and the final concentration used in the assay is either 10 μM (for identifying molecules affecting parasite growth) or a serial dilution from 10 μM to 1 nM (for estimating the dose response and EC50 value). All compounds are plated in triplicates as biological replicates. Each 96 well plate also includes negative control (compound untreated & DMSO only treated culture) and positive control (standard anti-malarial compounds treated culture). […] After plating, the culture is incubated in standard growth condition for 60 hours, after which the cultures are processed for testing the effect of compounds on parasite growth as given below.
The inventors have standardized a SybrGreen dye based staining protocol for estimating parasite growth, which is a modification of previously published protocol [Plouffe et. al, 2008]. SybrGreen dye binds to DNA and only the DNA bound dye gives a specific fluorescence emission ([…]) when excited ([…]). Since only the parasites have DNA (as human RBCs are devoid of nucleus), the SybrGreensignal is a direct indictor of parasite growth. A standard fluorescent plate reader issued for assay read out, and the staining is done as follows. 25 μL of 10× stock containing of dye and Triton X100 (0.5%) is added to each of 200 μL culture growing in a 96 well plate and mixed well and incubated for 15 min-30 min before reading fluorescence emission using the plate reader at the appropriate wavelength.

Where [2] appears, read: 10 μM compound, ring stage culture ~2% parasitemia.

Take `CCN(CC)Cc1nc2ccccc2c2cc[nH]c12` [Ib, N-((3H-pyrrolo[2,3-c]quinolin-4-yl)methyl)-N-ethylethanamine]: 10 µM produced 97% inhibition in series [1] (setting [2]). In addition, a half-maximal response in series [1] (EC50) required 8.58 µM.
`COc1ccc(N(C)Cc2nc3ccccc3c3ccn(S(=O)(=O)c4ccccc4)c23)cc1` [Ik, 4-methoxy-N-methyl-N-((3-(phenylsulfonyl)-3H-pyrrolo[2,3-c]quinolin-4-yl)methyl)aniline] displayed a melting point of 48 to 50 °C. In addition, the inhibition at 10 µM in series [1] (setting [2]) was 90.2%. The EC50 in series [1] is above 10 µM.
For the compound `O=Cc1nc2ccccc2c2ccn(S(=O)(=O)c3ccccc3)c12` [Compound of formula 3, 3-(phenylsulfonyl)-3H-Pyrrolo[2,3-c]quinoline-4-carbaldehyde], testing at 10 µM in series [1] (setting [2]) gave an inhibition of 88.3%. This compound also came in with an EC50 in series [1] above 10 µM.
For `CCN(CC)CCCC(C)N(C)Cc1nc2ccccc2c2cc[nH]c12` (stereo not drawn) [Im, N^4-((3H-pyrrolo [2,3-c]quinolin-4-yl)methyl)-N^1,N^1-diethyl-N^4-methylpentane-1,4-diamine] the same measures were 98.5% and 0.17 µM.
For `OCCN(CCO)Cc1nc2ccccc2c2cc[nH]c12` [Id], in that order: 91.5% and 4.48 µM.
For `Cc1nc2ccccc2c2[nH]ccc12` [In, 4-methyl-1H-pyrrolo[3,2-c]quinoline] the same measures were 99.1% and 3.7 µM.
`O=c1c2ccccc2ncn1Cc1nc2ccccc2c2cc[nH]c12` [NCLite-M1, (3-((3H)-pyrrolo[2,3-c]quinoline-4-yl)methyl)quinazolin-4(3H)-one, reference compound]: the “Average % growth Inhibition” value in series [1] (setting [2]) was 9.18%.
In the case of `CN(Cc1nc2ccccc2c2ccn(S(=O)(=O)c3ccccc3)c12)c1ccccc1` [Ie, N-methyl-N-((3-(phenylsulfonyl)-3H-pyrrolo[2,3-c]quinolin-4-yl)methyl)aniline], the melting point is 146 to 148 °C. In series [1] (setting [2]), this compound had an inhibition at 10 µM of 55.5%. This compound also returned an EC50 in series [1] above 10 µM.
For `O=S(=O)(c1ccccc1)n1ccc2c3ccccc3nc(CN3CCOCC3)c21` [Ig, 4-((3-(phenylsulfonyl)-3H-Pyrrolo[2,3-c]quinolin-4-yl)methyl)morpholine] the same measures were 138 to 140 °C, 79.4% and 7.86 µM.
For the compound `CN(Cc1nc2ccccc2c2cc[nH]c12)c1ccccc1` [If, N-((3H-pyrrolo[2,3-c]quinolin-4-yl)methyl)-N-methyl aniline], the melting point lay in the range of 139 to 141 °C. In series [1] (setting [2]), this compound came in with an inhibition at 10 µM of 89.9%. Moreover, the half-maximal effective concentration (EC50) in series [1] was determined as 8.72 µM.
Consider `O=S(=O)(c1ccccc1)n1ccc2c3ccccc3nc(CN(CCO)CCO)c21` [Ic], for which the melting point fell in the range of 98 to 99 °C. The compound further had an inhibition at 10 µM in series [1] (setting [2]) of 93.6%. In addition, the EC50 in series [1] is above 10 µM.
`c1ccc2c(c1)nc(CN1CCOCC1)c1[nH]ccc12` [Ih, 4-((3H-pyrrolo[2,3-c]quinolin-4-yl)methyl)morpholine] had a melting point of 148 to 150 °C. The compound also gave an inhibition at 10 µM in series [1] (setting [2]) of 86.8%. In series [1], this compound yielded an EC50 of 1.99 µM.
For `c1ccc(N(Cc2nc3ccccc3c3cc[nH]c23)Cc2nc3ccccc3c3cc[nH]c23)cc1` [Ij, N,N-bis((3H-pyrrolo[2,3-c]quinolin-4-yl)methyl)aniline], in that order: 242 to 244 °C, 84.1% and above 10 µM.
The compound `O=S(=O)(c1ccccc1)n1ccc2c3ccccc3nc(CN(Cc3nc4ccccc4c4ccn(S(=O)(=O)c5ccccc5)c34)c3ccccc3)c21` [Ii, N,N-bis((3-(phenylsulfonyl)-3H-pyrrolo[2,3-c]quinolin-4-yl)methyl)aniline] showed a melting point of 188 to 190 °C. This compound also had an inhibition at 10 µM in series [1] (setting [2]) of 88.3%. For the same compound, in series [1], the concentration for a half-maximal effect (EC50) was above 10 µM.
In series [1] (setting [2]), `COc1ccc(N(C)Cc2nc3ccccc3c3cc[nH]c23)cc1` [Il, N-((3H-pyrrolo[2,3-c]quinolin-4-yl)methyl)-4-methoxy-N-methylaniline] returned an inhibition at 10 µM of 94.1%. This compound also had an EC50 in series [1] of 0.74 µM.
For `CCN(CC)Cc1nc2ccccc2c2ccn(S(=O)(=O)c3ccccc3)c12` [Ia, N-ethyl-N-((3-(phenylsulfonyl)-3H-pyrrolo [2,3-c]quinolin-4-yl)methyl)ethanamine] the same measures were 99.7% and 0.27 µM.

By inhibition is commonly meant how much of the control response was suppressed. Low readings indicate a weak effect, high ones a strong effect. Usually EC50 stands for the midpoint of the concentration-response curve. One may read the melting point as the temperature of the solid-liquid transition.
